A short description of data set [1]: Solubility of solid state racemic tamsulosin free base precipitates (qualitative). The data set is classed as physicochemical. The settings on record: relatively pure precipitate. An excerpt: The typical starting tamsulosin substrate, namely racemic tamsulosin free base in solid state, is not formed in the prior art per se. The present invention is based in part on the discovery that the racemic free base can be formed and isolated in the solid state. Preferably the solid state form is a precipitate from a solution. More preferably, the solid state form is a crystalline form. The crystalline form includes all polymorphic modifications, unless otherwise noted and includes hydrates and solvates thereof. In particular, two polymorphic forms of solid state racemic tamsulosin free base, designated as Form 1 and Form 2, have now been discovered as part of the present invention and are described hereinafter. The solid state racemic free base can be isolated in high purity, including at least 80% purity, more preferably at least 90% purity, still more preferably at least 95% purity.

A short description of data set [2]: Water solubility of amine (5) observed during alkaline extraction. Format: physicochemical. The settings on record: free base, normal alkaline extraction gave too high a loss. The source says: It has now been discovered that the so obtained free base of (5) is contaminated by side-products and should be purified for the next step. […] It has been discovered that an effective way to purify the amine is to form a sulfonic acid salt of the amine, especially methane sulfonate or tosylate. The salt, particularly the methane sulfonate salt of (5), may be isolated in solid, preferably crystalline state by conventional methods and may be used as an advantageous substrate in the next reaction step. The conversion of the free base of (5) into an acid addition salt and isolation of the salt in solid state enhances the purity of the compound (5), particularly it removes side products that resulted from hydrogenation such as 2-ethoxyphenyl. The 2-(o-ethoxyphenoxy)ethylamine methane sulfonate thus forms a specific aspect of this invention.

Each structure is given as a SMILES string.

On to `CCOc1ccccc1OCCNC(C)Cc1ccc(OC)c(S(N)(=O)=O)c1` (racemic) [racemic tamsulosin free base, (R,S)-5-[2-[[2-(2-ethoxyphenoxy)ethyl]amino]propyl]-2-methoxybenzene-sulfonamide], for which the solubility in alcohols entry in data set [1] (alcohols such as methanol and ethanol) is listed as “soluble”. In data set [1] (chlorinated hydrocarbons), the “solubility in chlorinated hydrocarbons” value is listed as “soluble”. Besides, in data set [1] (water), the solubility in water entry is given as “sparingly soluble”.

`CCOc1ccccc1OCCN` [amine (5), 2-(o-ethoxyphenoxy)ethylamine]: in data set [2], the water solubility entry is “unexpectedly high”.

These data come from patent US6965051B2, “Process for resolution of tamsulosin and compounds, compositions, and processes associated therewith” (Synthon IP Inc., priority 2001, dated 2005).
